# Values quoted from earlier work as cited in US20260297044A1, “INHIBITORS OF SPINSTER HOMOLOG 2 (SPNS2) FOR USE IN THERAPY” (University of Virginia Patent Foundation, priority 2023, published 2026).
# System: Spns2
# Settings: two models of kidney fibrosis, mice
smiles,measurement,value
CCCCCCCCCCc1ccc(-c2noc(CCCN)n2)cc1 [SLF1081851],fibrosis,significantly less fibrosis
same,function of the injured kidney,improved function of the injured kidney
